Test results published in publication PMC10347124, “Exploring the Anticancer Potential of Premna resinosa (Hochst.) Leaf Surface Extract: Discovering New Diterpenes as Heat Shock Protein 70 (Hsp70) Binding Agents” (Plants, 2023).

Columns and labels:
[1] = biological target: T1, Hsp70 (Heat Shock Protein 70 1A) (Homo sapiens, UniProt P0DMV8); assay: SPR (Biacore […]), single-site model; positive control; assay type: binding
T1 construct: gene HSPA1A; recombinant Hsp70 immobilized on CM5 chip

[2] = biological target: T1, Hsp70 (Heat Shock Protein 70 1A); assay: SPR (Biacore […]), single-site model; assay type: binding

T1 sequence (P0DMV8 2-641): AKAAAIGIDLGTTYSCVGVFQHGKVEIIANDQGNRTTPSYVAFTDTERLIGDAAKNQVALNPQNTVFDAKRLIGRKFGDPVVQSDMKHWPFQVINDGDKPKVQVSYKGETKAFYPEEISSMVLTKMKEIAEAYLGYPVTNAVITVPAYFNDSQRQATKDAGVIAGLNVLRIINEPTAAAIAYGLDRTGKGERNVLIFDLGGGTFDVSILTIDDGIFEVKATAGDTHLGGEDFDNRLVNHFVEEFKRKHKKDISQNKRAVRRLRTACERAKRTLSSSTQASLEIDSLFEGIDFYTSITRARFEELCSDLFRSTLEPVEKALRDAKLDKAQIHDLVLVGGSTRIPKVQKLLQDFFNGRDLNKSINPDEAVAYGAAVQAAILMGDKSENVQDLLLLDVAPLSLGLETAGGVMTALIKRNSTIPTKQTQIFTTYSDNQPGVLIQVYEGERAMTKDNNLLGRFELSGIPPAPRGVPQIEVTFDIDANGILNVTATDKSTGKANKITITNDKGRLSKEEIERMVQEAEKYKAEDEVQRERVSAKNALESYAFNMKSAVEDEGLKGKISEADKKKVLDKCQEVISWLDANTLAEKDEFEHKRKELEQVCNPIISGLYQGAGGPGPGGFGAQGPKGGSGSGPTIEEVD

A Kd [1] of 81.4 nM was found for `C=C1C(=O)[C@]23[C@H](O)[C@H]1CC[C@H]2[C@@]12CO[C@]3(O)[C@@H](O)[C@@H]1C(C)(C)CC[C@@H]2O` [oridonin] in this work.
A Kd [2] of 1000 nM was found for `CC1=CCC2C(C)(C)CCCC2(C)C1CC(O)C1=CC(=O)OC1` (single isomer, unassigned; ent-12) [compound 4, ent-12-hydroxylabda-7,13-dien-15,16-olide] in this work.
